Test results from patent US20070248694A1, “Anti-inflammatory properties of a standardized extract from Euphorbia hirta (PM-251) activity and for treating conditions of inflammation” (PhytoMyco Research Corporation, priority 2006, published 2007).

Assays:
Type in all cases: in vivo, Wister strain - Albino rats
[1] = test system: Formalin induced peritonitis; assay: Formalin induced experimental peritonitis; settings: 100 mg/kbw oral single dose
Experimental: (§1) Dose Levels • Control: One ml of 1% gum acacia • Standard: 100 mg/kbw (kilogram body weight) in acute models and sub-acute models. • T1:100 mg/kbw and T2:200 mg/kbw in Carrageenin and Turpentine models and T1: 200 mg/kbw and T2:400 mg/kbw in Cotton pellet granuloma and Formalin induced arthritis model. […] All drugs (dose) were given only once a day. 2. Method of performance study • Main assays: The test article, the standard and control were administered: a. Carrageenin induced rat paw edema: The respective drug was administered in single dose through mouth 1 hour before the administration of phlogistic agent. The method used comprises of the study of the acute inflammatory reaction induced by injecting the phlogistic agent carrageenin into the subplantar surface of the right hindpaw of the rat. […] Lesser the mean paw volume more was the anti-inflammatory potential and vice versa. • b. Turpentine induced arthritis: The respective drug was administered in single dose through mouth 1 hour before the administration of phlogistic agent. […] The maximum diameter of the right knee joint was measured at ‘0’ hour and at the end of ‘4’ hours after the injection with the help of screw gauge and the difference between ‘0’ hour and ‘4’ hour reading gave the actual arthritis. […]

[2] = test system: Cotton pellet induced granuloma; assay: Cotton wool pellet induced granuloma; settings: 100 mg/kbw oral once daily
Experimental: as §1

[3] = test system: Carrageenin induced rat paw edema; assay: Carrageenin induced rat paw edema; settings: 100 mg/kbw oral single dose
Experimental: Dose Levels • Control: One ml of 1% gum acacia • Standard: 100 mg/kbw (kilogram body weight) in acute models and sub-acute models. • T1:100 mg/kbw and T2:200 mg/kbw in Carrageenin and Turpentine models and T1: […] All drugs (dose) were given only once a day. 2. Method of performance study • Main assays: The test article, the standard and control were administered: a. Carrageenin induced rat paw edema: The respective drug was administered in single dose through mouth 1 hour before the administration of phlogistic agent. The method used comprises of the study of the acute inflammatory reaction induced by injecting the phlogistic agent carrageenin into the subplantar surface of the right hindpaw of the rat. […] Lesser the mean paw volume more was the anti-inflammatory potential and vice versa. • b. Turpentine induced arthritis: The respective drug was administered in single dose through mouth 1 hour before the administration of phlogistic agent. This is one of the commonly employed models to induce arthritis in the rat; 0.01 ml turpentine was injected to the right knee joint. The maximum diameter of the right knee joint was measured at ‘0’ hour and at the end of ‘4’ hours after the injection with the help of screw gauge and the difference between ‘0’ hour and ‘4’ hour reading gave the actual arthritis. […]

[4] = test system: Turpentine induced arthritis; assay: Turpentine induced arthritis; settings: 100 mg/kbw oral single dose
Experimental: Dose Levels • Control: One ml of 1% gum acacia • Standard: 100 mg/kbw (kilogram body weight) in acute models and sub-acute models. • T1:100 mg/kbw and T2:200 mg/kbw in Carrageenin and Turpentine models and T1: […] All drugs (dose) were given only once a day. 2. Method of performance study • Main assays: The test article, the standard and control were administered: a. Carrageenin induced rat paw edema: The respective drug was administered in single dose through mouth 1 hour before the administration of phlogistic agent. The method used comprises of the study of the acute inflammatory reaction induced by injecting the phlogistic agent carrageenin into the subplantar surface of the right hindpaw of the rat. […] Lesser the mean paw volume more was the anti-inflammatory potential and vice versa. • b. Turpentine induced arthritis: The respective drug was administered in single dose through mouth 1 hour before the administration of phlogistic agent. This is one of the commonly employed models to induce arthritis in the rat; 0.01 ml turpentine was injected to the right knee joint. The maximum diameter of the right knee joint was measured at ‘0’ hour and at the end of ‘4’ hours after the injection with the help of screw gauge and the difference between ‘0’ hour and ‘4’ hour reading gave the actual arthritis. Lesser the mean diameter right knee joint more the anti-inflammatory potential and vice versa. • c. Formalin induced experimental peritonitis: The respective drug was administered in single dose through mouth 1 hour before the administration of phlogistic agent by injecting 1 ml of 1% formalin in to the peritoneal cavity. […] Lesser the mean exudates more is the anti-inflammatory potential and vice versa. • d. Cotton wool pellet induced granuloma: The respective drug was administered by mouth in single dose one hour prior to the cotton pellet implantation on the first day and subsequently every day for next five days. The extent of formation of foreign body granuloma (granulation tissue) is the main criterion for evaluating anti-inflammatory activity. […]

How did the “Inhibitory Potency Values” [1] turn out when `COc1ccc2c(c1)c(CC(=O)O)c(C)n2C(=O)c1ccc(Cl)cc1` [Indomethacin] was run?
Its value is 1.38.

What about the “Mean volume (in ml.) (±) SEM” value ([1]; peritoneal exudate volume after 4 hours) of the same compound?
Its value is 0.57 ± 0.14 mL.

What about the “Inhibitory Potency Values” [2] of the same compound?
The value was 2.38.

What about the “Mean volume (in mg.) (±)” value ([2]; granulation tissue weight on dried cotton pellet, sixth day) of the same compound?
Its value is 6.54 ± 0.36 mg.

And the “Inhibitory Potency Values” [3]?
The value was 3.98.

What about the “Mean volume (in ml.) (±) SEM” value ([3]; paw edema volume, difference 0 h to 4 h) of the same compound?
The value was 0.88 ± 0.52 mL.

And the “% inhibition with respect to control” value [4]?
The value was 84.95%.

What about the “Inhibitory Potency Values” [4] of the same compound?
The value was 0.85.

What about the “Mean volume (in mm.) (±) SEM” value ([4]; right knee joint diameter, difference 0 h to 4 h) of the same compound?
The value was 1.55 ± 0.19 mm.
